The results in this text go back to patent US20250228958A1, “TSP1 INHIBITOR” (Daiichi Sankyo Company, Limited, priority 2022, published 2025).

Entries after “also recorded” stand apart in the source; their conditions may differ. Starred links: 1 amine or outer side, 2 acyl side, 3 side chain; linkers in the order of their positions; H or OH if unused. Positions of bridges follow the written chain, without caps; N, C: chain ends. Non-standard residues stand in square brackets, D forms with d. Residues, ends and D or L forms follow the SMILES beside them. *: point of attachment. X1 = COCCOCCOCCOCCOCCOCCOCCOCCOCCOCCOCC(=O)N[C@@H](CCCCN*)C(=O)NCCOCCOCCOCCOCCOCCOCCOCCOCCOCCOCCOCCOCCC(=O)NCCOCCOCCOCCOCCOCCOCCOCCOCCOCCOCCOCCOCCC(=O)N[C@@H](CCCCNC(=O)CCN1C(=O)CC(C)C1=O)C(N)=O; 2Nal = N[C@@H](Cc1ccc2ccccc2c1)C(=O)O; Gly(cPent) = N[C@H](C(=O)O)C1CCCC1; Agb = N=C(N)NCC[C@H](N)C(=O)O; hCys = N[C@@H](CCS)C(=O)O; CH2 = C([*:1])[*:2]

Data set [1] can be described thus: Serum stability test, mouse serum. The data set is classed as in vitro ADME. To be noted: for remaining at 4 h, 20 μM: male, BALB/c CrSlc, mouse, mouse serum, residual ratio: IS ratio at 4 hours relative to 0 hours, 37° C.; for serum stability (in words): statement covers mouse, monkey and human serum, 4 hours. The text has this: (§1) • Mouse serum (BALB/c CrSlc, male, Japan SLC, Inc.) • Monkey serum (cynomolgus monkey, male, Japan SLC, Inc.) • Human serum (Caucasian, pool of 5 males and 5 females, KAC Co., Ltd.) • Phenacetin (Nacalai Tesque, Inc.) • Niflumic acid (Nacalai Tesque, Inc.) • Furosemide (Nacalai Tesque, Inc.) • Acetonitrile (FUJIFILM Wako Pure Chemical Corporation) • Methanol (FUJIFILM Wako Pure Chemical Corporation) • Formic acid (FUJIFILM Wako Pure Chemical Corporation) • Dimethyl sulfoxide (DMSO) (FUJIFILM Wako Pure Chemical Corporation)
(§2) Solutions of Phenacetin, niflumic acid, and furosemide were prepared in DMSO at 10 μg/ml, 150 μg/ml, and 200 μg/ml, respectively. 10 μg/ml of phenacetin in DMSO, 150 μg/ml of niflumic acid in DMSO, and 200 μg/ml of furosemide in DMSO were dissolved in a mixture of […]/methanol (75/25, v/v) (final concentrations: phenacetin; 1 ng/mL, niflumic acid: 15 ng/mL, and furosemide 20 ng/mL), and formic acid was added to the prepared test solution (final concentration: 1% (v/v)) to prepare a formic acid-containing IS solution.
(§3) The test substances were prepared in DMSO to a concentration of 10 mM each. Further, the solution was diluted with DMSO to a concentration of 2 mM to make a test substance solution.
(§4) Each serum was preincubated at 37° C. for 5 minutes, and then the test substance solution was added to a final concentration of 20 μM to initiate the reaction. The test substance-added serum was incubated at 37° C. At 0 and 4 hours after the start of the reaction, a portion of the serum was taken out and added to the formic acid-containing IS solution to stop the reaction, which was used as a measurement sample.
(§5) The test substance and IS (phenacetin, niflumic acid, and furosemide) in the measurement sample were measured by LC-MS/MS, and the peak area ratio (IS ratio) of the test substance to IS (any of phenacetin, niflumic acid, and furosemide) was calculated.
(§6) The percentage of the IS ratio at 4 hours after the start of the reaction relative to that at 0 hours after the start of the reaction was used as a residual ratio to evaluate serum stability.

Data set [2] is described as follows: Serum stability test, monkey serum. The data set is classed as in vitro ADME, cynomolgus monkey. To be noted: male, residual ratio: IS ratio at 4 hours relative to 0 hours, 37° C.
Text: as §1, §2, §3, §4, §5, §6

A short description of data set [3]: Serum stability test, human serum. The data set is classed as in vitro ADME. To be noted: both sexes, residual ratio: IS ratio at 4 hours relative to 0 hours, 37° C.
Text: as §1, §2, §3, §4, §5, §6

Data set [4] concerns C57BL/6 mice, ischemic limb blood flow. The data set is described as follows: Blood flow improvement measurement tests (femoral artery/vein ligation and excision, laser Doppler). The data set is classed as in vivo, mouse. To be noted: for blood flow AUC, % of vehicle group mean: blood flow AUC from beginning to end of measurement, ratio to vehicle-treated group mean; for %, ischemia/nonischemia (blood flow on the last day of measurement): mean ± standard error, ratio of ischemic limb flow to non-ischemic limb flow. The text has this: Six to seven-week-old C57BL/6 mice were purchased from Charles River Laboratories Japan Inc., and acclimated over six days by feeding with a FR-2 solid diet (produced by Funabashi Farm Co., Ltd.). The rearing facility switched between light and dark modes in a 12-hour cycle with light turning on at 7 a.m. and turning off at 7 p.m. Under isoflurane inhalation anaesthesia, the left thighs of the mice were dissected, and the superficial femoral arteries and veins (from just below the deep femoral arteries to the popliteal artery and vein) were ligated and excised. […] Five mice were used for each treatment group.
Blood flows were measured in ischemic (left) and non-ischemic (right) limbs using a laser Doppler perfusion imager (PeriScan PIM III, Moor LD12-HR). The improvement of blood flow was evaluated by the ratio of ischemic limb flow to non-ischemic limb flow. […] In addition, blood flow AUC was calculated to determine the ratio (%) of the mean value of the test substance-treated group to the mean value of the vehicle-treated group.

For the molecule `N=C(N)NCCC[C@@H]1NC(=O)[C@H](Cc2ccc3ccccc3c2)NC(=O)CSC[C@@H](C(N)=O)NC(=O)[C@H](C2CCCC2)NC(=O)[C@H](Cc2c[nH]c3ccccc23)NC(=O)[C@H](CCCNC(=N)N)NC(=O)[C@@H]2CCSSCC[C@H](NC1=O)C(=O)NCC(=O)N[C@@H](CCNC(=N)N)C(=O)N[C@@H](CC(=O)O)C(=O)N[C@@H](Cc1c[nH]c3ccccc13)C(=O)N2` [Peptide-9] ({CH2CO}-[2Nal]R[hCys]G[Agb]DW[hCys]RW[Gly(cPent)]C-NH2; disulfide 3-8; thioether N-12), the fraction remaining at 4 h, 20 μM in data set [1] came to 95.8%; in data set [2] it was 93%; in data set [3], 118%. Besides, the “serum stability (in words)” value in data set [1] is listed as “high serum stability; also recorded: higher serum stability”.
For `COCCOCCOCCOCCOCCOCCOCCOCCOCCOCCOCC(=O)N[C@@H](CCCCNC(=O)[C@H](CC(=O)O)NC(=O)[C@H](CC(=O)O)NC(=O)CNC(=O)CNC(=O)CNC(=O)CNC(=O)[C@@H]1CSCC(=O)N[C@@H](Cc2ccc3ccccc3c2)C(=O)N[C@H](CCCNC(=N)N)C(=O)N[C@H]2CCSSCC[C@H](NC(=O)[C@H](Cc3c[nH]c4ccccc34)NC(=O)[C@@H](CC(=O)O)NC(=O)[C@H](CCCNC(=N)N)NC(=O)CNC2=O)C(=O)N[C@H](CCCNC(=N)N)C(=O)N[C@@H](Cc2c[nH]c3ccccc23)C(=O)N[C@@H](C2CCCC2)C(=O)N1)C(=O)NCCOCCOCCOCCOCCOCCOCCOCCOCCOCCOCCOCCOCCC(=O)NCCOCCOCCOCCOCCOCCOCCOCCOCCOCCOCCOCCOCCC(=O)N[C@@H](CCCCNC(=O)CCN1C(=O)CC(C)C1=O)C(N)=O` (some centres unmarked) [Conjugate-4] ({CH2CO}-[2Nal][dR][hCys]GR[dD]W[hCys][dR]W[Gly(cPent)]CGGGGDD-X1; disulfide 3-8; thioether N-12), in data set [4] (0.3 mg/kg), the “blood flow AUC, % of vehicle group mean” value turned out to be 263.9% and the “%, ischemia/nonischemia (blood flow on the last day of measurement)” value is 54.5 ± 10.2%. Further, in data set [4] (1 mg/kg), the “blood flow AUC, % of vehicle group mean” value worked out at 346.8% and the “%, ischemia/nonischemia (blood flow on the last day of measurement)” value is reported as 76.1 ± 11.2%.
Turning to `N=C(N)NCCC[C@@H]1NC(=O)CNC(=O)[C@@H]2CCSSCC[C@H](NC(=O)[C@H](Cc3c[nH]c4ccccc34)NC(=O)[C@H](CC(=O)O)NC1=O)C(=O)N[C@@H](CCCNC(=N)N)C(=O)N[C@@H](Cc1c[nH]c3ccccc13)C(=O)N[C@@H](C1CCCC1)C(=O)N[C@H](C(N)=O)CSCC(=O)N[C@@H](Cc1ccc3ccccc3c1)C(=O)N[C@@H](CCCNC(=N)N)C(=O)N2` [Peptide-11] ({CH2CO}-[2Nal]R[hCys]GRDW[hCys]RW[Gly(cPent)]C-NH2; disulfide 3-8; thioether N-12), the fraction remaining at 4 h, 20 μM stood at 88% in data set [1], 89.9% in data set [2] and 105% in data set [3]. Also, the “serum stability (in words)” value in data set [1] is listed as “high serum stability”.
`N=C(N)NCCC[C@@H]1NC(=O)CNC(=O)[C@@H]2CSCSCC[C@H](NC(=O)[C@H](Cc3c[nH]c4ccccc34)NC(=O)[C@H](CC(=O)O)NC1=O)C(=O)N[C@@H](CCCNC(=N)N)C(=O)N[C@@H](Cc1c[nH]c3ccccc13)C(=O)N[C@@H](C1CCCC1)C(=O)N[C@H](C(N)=O)CSCC(=O)N[C@@H](Cc1ccc3ccccc3c1)C(=O)N[C@@H](CCCNC(=N)N)C(=O)N2` [Peptide-131] ({CH2CO}-[2Nal]RCGRDW[hCys]RW[Gly(cPent)]C-NH2; linker 3-8 via CH2; thioether N-12): the fraction remaining at 4 h, 20 μM was 89.2% in data set [1], 89.2% in data set [2] and 101% in data set [3]. For the same molecule, the “serum stability (in words)” value in data set [1] is “high serum stability”.
In the case of `N=C(N)NCCC[C@@H]1NC(=O)CNC(=O)[C@@H]2CCSCSCC[C@H](NC(=O)[C@H](Cc3c[nH]c4ccccc34)NC(=O)[C@H](CC(=O)O)NC1=O)C(=O)N[C@@H](CCCNC(=N)N)C(=O)N[C@@H](Cc1c[nH]c3ccccc13)C(=O)N[C@@H](C1CCCC1)C(=O)N[C@H](C(N)=O)CSCC(=O)N[C@@H](Cc1ccc3ccccc3c1)C(=O)N[C@@H](CCCNC(=N)N)C(=O)N2` [Peptide-127] ({CH2CO}-[2Nal]R[hCys]GRDW[hCys]RW[Gly(cPent)]C-NH2; linker 3-8 via CH2; thioether N-12), the share remaining at 4 h, 20 μM in data set [1] came to 90%; in data set [2], 95.1%; in data set [3], 97.5%.
In the case of `N=C(N)NCCC[C@@H]1NC(=O)CNC(=O)[C@@H]2CSSCC[C@H](NC(=O)[C@H](Cc3c[nH]c4ccccc34)NC(=O)[C@H](CC(=O)O)NC1=O)C(=O)N[C@@H](CCCNC(=N)N)C(=O)N[C@@H](Cc1c[nH]c3ccccc13)C(=O)N[C@@H](C1CCCC1)C(=O)N[C@H](C(N)=O)CSCC(=O)N[C@@H](Cc1ccc3ccccc3c1)C(=O)N[C@@H](CCCNC(=N)N)C(=O)N2` [Peptide-126] ({CH2CO}-[2Nal]RCGRDW[hCys]RW[Gly(cPent)]C-NH2; disulfide 3-8; thioether N-12), the fraction remaining at 4 h, 20 μM came out at 98.3% in data set [1], 100% in data set [2] and 99.6% in data set [3].
The corresponding values for `N=C(N)NCCC[C@@H]1NC(=O)CNC(=O)[C@@H]2CSSC[C@H](NC(=O)[C@H](Cc3c[nH]c4ccccc34)NC(=O)[C@H](CC(=O)O)NC1=O)C(=O)N[C@@H](CCCNC(=N)N)C(=O)N[C@@H](Cc1c[nH]c3ccccc13)C(=O)N[C@@H](C1CCCC1)C(=O)N[C@H](C(N)=O)CSCC(=O)N[C@@H](Cc1ccc3ccccc3c1)C(=O)N[C@@H](CCCNC(=N)N)C(=O)N2` [Peptide-128] ({CH2CO}-[2Nal]RCGRDWCRW[Gly(cPent)]C-NH2; disulfide 3-8; thioether N-12) are 98.1%, 98.6% and 99%.
The corresponding values for `CC(C)[C@@H]1NC(=O)[C@H](Cc2c[nH]c3ccccc23)NC(=O)[C@H](CC(=O)O)NC(=O)[C@H](CCNC(=N)N)NC(=O)CNC(=O)[C@H](CO)NC(=O)[C@H](CCCNC(=N)N)NC(=O)[C@H](Cc2ccc3ccccc3c2)NC(=O)CSC[C@@H](C(N)=O)NC(=O)[C@H](C2CCCC2)NC(=O)[C@H](Cc2c[nH]c3ccccc23)NC(=O)[C@H](CCCNC(=N)N)NC1=O` [Peptide-119] are 70.9%, 21.1% and 88.5%.
Regarding `N=C(N)NCCC[C@@H]1NC(=O)CNC(=O)[C@@H]2CSCSC[C@H](NC(=O)[C@H](Cc3c[nH]c4ccccc34)NC(=O)[C@H](CC(=O)O)NC1=O)C(=O)N[C@@H](CCCNC(=N)N)C(=O)N[C@@H](Cc1c[nH]c3ccccc13)C(=O)N[C@@H](C1CCCC1)C(=O)N[C@H](C(N)=O)CSCC(=O)N[C@@H](Cc1ccc3ccccc3c1)C(=O)N[C@@H](CCCNC(=N)N)C(=O)N2` [Peptide-130] ({CH2CO}-[2Nal]RCGRDWCRW[Gly(cPent)]C-NH2; linker 3-8 via CH2; thioether N-12), the fraction remaining at 4 h, 20 μM came out at 98% in data set [1], 93.5% in data set [2] and 88% in data set [3]. The “serum stability (in words)” value in data set [1] was “high serum stability”.
In the case of `CC(C)[C@@H]1NC(=O)[C@H](Cc2c[nH]c3ccccc23)NC(=O)[C@H](CC(N)=O)NC(=O)[C@H](CCNC(=N)N)NC(=O)CNC(=O)[C@H](CO)NC(=O)[C@H](CCCNC(=N)N)NC(=O)[C@H](Cc2ccc3ccccc3c2)NC(=O)CSC[C@@H](C(N)=O)NC(=O)[C@H](C2CCCC2)NC(=O)[C@H](Cc2c[nH]c3ccccc23)NC(=O)[C@H](CCCNC(=N)N)NC1=O` [Peptide-115] ({CH2CO}-[2Nal]RSG[Agb]NWVRW[Gly(cPent)]C-NH2; thioether N-12), the values for the share remaining at 4 h, 20 μM in data set [1], in data set [2] and in data set [3] were 64.5%, 14.9% and 78.2%, respectively.
